biological target: T1, full length active recombinant SYK enzyme (Homo sapiens, UniProt P43405); test: Inhibition of Syk tyrosine phosphorylation activity (LANCE TR-FRET kinase assay); type: biochemical
T1 construct: full length active recombinant SYK enzyme (Millipore, Calif.); purchased Millipore

First: Cc1cccc(Nc2nc(N[C@@H]3CCCC[C@@H]3N)c(F)cc2C(N)=O)c1C [Example 319, 6-((1R,2S)-2-aminocyclohexylamino)-2-(2,3-dimethylphenylamino)-5-fluoronicotinamide]
Second: Cn1ncc2c(Nc3nc(N[C@@H]4CCCC[C@@H]4N)c(F)cc3C(N)=O)cccc21 [Example 136, 2-(1-methyl-1H-indazol-4-ylamino)-6-((1R,2S)-2-aminocyclohexylamino)-5-fluoronicotinamide]
The IC50 of the first is higher: 0.01 to 0.1 µM for the first, 0.001 to 0.01 µM for the second.

Cc1cc(Nc2cc(N[C@@H]3CCCC[C@@H]3N)c(F)cc2C(N)=O)sn1 [Example 21, 4-((1R,2S)-2-aminocyclohexylamino)-5-fluoro-2-(3-methylisothiazol-5-ylamino)benzamide] and Cc1cc(Nc2cc(N[C@H](CC3CC3)C(N)=O)c(F)cc2C(N)=O)sn1 [Example 25, (R)-4-(1-amino-3-cyclopropyl-1-oxopropan-2-ylamino)-5-fluoro-2-(3-methylisothiazol-5-ylamino)benzamide] fall in the same range of IC50: 0.01 to 0.1 µM for the first, 0.01 to 0.1 µM for the second.

Compared with NC(=O)c1cc(F)c(NC2(C(N)=O)CCC2)nc1Nc1cnc2ccccc2c1 [Example 379, 6-(1-carbamoylcyclobutylamino)-5-fluoro-2-(quinolin-3-ylamino)nicotinamide], NC(=O)c1cc(F)c(NC2(C(N)=O)CCCCC2)nc1Nc1cnc2ccccc2c1 [Example 378, 6-(1-carbamoylcyclohexylamino)-5-fluoro-2-(quinolin-3-ylamino)nicotinamide] is higher in IC50: 0.1 to 1 µM for the first, > 1 µM for the second.

First: C[C@H](N)CNc1nc(Nc2cncc(F)c2)c(C(N)=O)cc1F [Example 261, (S)-2-(5-fluoropyridin-3-ylamino)-6-(2-aminopropylamino)-5-fluoronicotinamide]
Second: CC[C@@H](Nc1nc(Nc2cncc(F)c2)c(C(N)=O)cc1F)C1(N)CC1 [Example 373, (R)-6-(1-(1-aminocyclopropyl)propylamino)-5-fluoro-2-(5-fluoropyridin-3-ylamino)nicotinamide]
The IC50 of the first is higher: 0.1 to 1 µM for the first, 0.01 to 0.1 µM for the second.

N#Cc1cc(C(N)=O)c(Nc2ccc3ncccc3c2)nc1N[C@@H]1CCCC[C@@H]1N [Example 113, 6-((1R,2S)-2-aminocyclohexylamino)-5-cyano-2-(quinolin-6-ylamino)nicotinamide] and NC(=O)c1cc(F)c(N[C@H]2[C@@H](N)CCCC2(F)F)nc1Nc1ccc2ncccc2c1 [Example 343, 6-((1S,6S)-6-amino-2,2-difluorocyclohexylamino)-5-fluoro-2-(quinolin-6-ylamino)nicotinamide] fall in the same range of IC50: 0.001 to 0.01 µM for the first, 0.001 to 0.01 µM for the second.

NC(=O)c1ccc(N[C@@H]2CCOC[C@@H]2N)nc1Nc1ccc2ncccc2c1 [Example 276, 6-((3R,4R)-3-aminotetrahydro-2H-pyran-4-ylamino)-2-(quinolin-6-ylamino)nicotinamide] and NC(=O)c1ccc(N[C@@H]2CCCC[C@@H]2N)nc1Nc1ccc2cnccc2c1 [Example 135, 2-(isoquinolin-6-ylamino)-6-((1R,2S)-2-aminocyclohexylamino)nicotinamide] fall in the same range of IC50: 0.001 to 0.01 µM for the first, 0.001 to 0.01 µM for the second.

First: COc1ccc(C[C@@H](Nc2cc(Nc3cc(C)ns3)c(C(N)=O)cc2F)C(N)=O)cc1 [Example 36, (R)-4-(1-amino-3-(4-methoxyphenyl)-1-oxopropan-2-ylamino)-5-fluoro-2-(3-methylisothiazol-5-ylamino)benzamide]
Second: Cc1cc(Nc2cc(N[C@H](Cc3ccc(O)cc3)C(N)=O)c(F)cc2C(N)=O)sn1 [Example 28, (R)-4-(1-amino-3-(4-hydroxyphenyl)-1-oxopropan-2-ylamino)-5-fluoro-2-(3-methylisothiazol-5-ylamino)benzamide]
The IC50 of the first is lower: 0.01 to 0.1 µM for the first, 0.1 to 1 µM for the second. The first is the more potent here.

CC(C)C[C@H](CN)Nc1nc(Nc2ccc3ncccc3c2)c(C(N)=O)cc1C#N [Example 122, (R)-6-(1-amino-4-methylpentan-2-ylamino)-5-cyano-2-(quinolin-6-ylamino)nicotinamide] and CC[C@H](CN)Nc1nc(Nc2ccc3ncsc3c2)c(C(N)=O)cc1F [Example 93, (R)-6-(1-aminobutan-2-ylamino)-2-(benzo[d]thiazol-6-ylamino)-5-fluoronicotinamide] fall in the same range of IC50: 0.001 to 0.01 µM for the first, 0.001 to 0.01 µM for the second.

CC[C@@H](Nc1ccc(C(N)=O)c(Nc2ccc3ncsc3c2)n1)C(N)=O [Example 206, (R)-6-(1-amino-1-oxobutan-2-ylamino)-2-(benzo[d]thiazol-6-ylamino)nicotinamide] and CC[C@@H](Nc1ccc(C(N)=O)c(Nc2ccc3scnc3c2)n1)C(N)=O [Example 207, (R)-6-(1-amino-1-oxobutan-2-ylamino)-2-(benzo[d]thiazol-5-ylamino)nicotinamide] fall in the same range of IC50: 0.01 to 0.1 µM for the first, 0.01 to 0.1 µM for the second.

NC(=O)c1ccc(N[C@@H]2CCCC[C@@H]2N)nc1Nc1cccc(-n2cncn2)c1 [Example 138, 2-(3-(1H-1,2,4-triazol-1-yephenylamino)-6-(1R,2S)-2-aminocyclohexylamino)nicotinamide] and NC(=O)c1cc(F)c(N[C@@H]2CCCC[C@@H]2N)nc1Nc1cccc(-n2cncn2)c1 [Example 42, 2-(3-(1H-1,2,4-triazol-1-yl)phenylamino)-6-((1R,2S)-2-aminocyclohexylamino)-5-fluoronicotinamide] fall in the same range of IC50: 0.001 to 0.01 µM for the first, 0.001 to 0.01 µM for the second.

CC(C)C[C@@H](Nc1nc(Nc2ccc3c(ccn3C)c2)c(C(N)=O)cc1F)C(N)=O [Example 249, (R)-6-(1-amino-4-methyl-1-oxopentan-2-ylamino)-5-fluoro-2-(1-methyl-1H-indol-5-ylamino)nicotinamide] and CC[C@@H](Nc1nc(Nc2ccc3cnccc3c2)c(C(N)=O)cc1F)C(N)=O [Example 99] fall in the same range of IC50: 0.01 to 0.1 µM for the first, 0.01 to 0.1 µM for the second.

Cc1cc(Nc2cc(N[C@H](Cc3ccc(F)cc3)C(N)=O)c(F)cc2C(N)=O)sn1 [Example 27, (R)-4-(1-amino-3-(4-fluorophenyl)-1-oxopropan-2-ylamino)-5-fluoro-2-(3-methylisothiazol-5-ylamino)benzamide] and Cc1cc(Nc2cc(N[C@@H](C(N)=O)C3CC3)ccc2C(N)=O)sn1 [Example 34] fall in the same range of IC50: 0.01 to 0.1 µM for the first, 0.01 to 0.1 µM for the second.

First: NC(=O)c1cc(F)c(N[C@@H]2CCCC[C@@H]2N)nc1Nc1ccc(Cl)cc1 [Example 318, 6-((1R,2S)-2-aminocyclohexylamino)-2-(4-chlorophenylamino)-5-fluoronicotinamide]
Second: NC(=O)c1cc(F)c(N[C@@H]2CCCC[C@@H]2N)nc1Nc1ccnnc1 [Example 84]
The IC50 of the first is lower: 0.01 to 0.1 µM for the first, 0.1 to 1 µM for the second.

Compared with Cn1cc(Nc2cc(N[C@@H]3CCCC[C@@H]3N)ccc2C(N)=O)cn1 [Example 8, 4-((1R,2S)-2-aminocyclohexylamino)-2-(1-methyl-1H-pyrazol-4-ylamino)benzamide], NC(=O)c1ccc(N[C@@H]2CCCC[C@@H]2N)nc1Nc1ccc2scnc2c1 [Example 400, 6-((1R,2S)-2-aminocyclohexylamino)-2-(benzo[d]thiazol-5-ylamino)nicotinamide] is lower in IC50: > 1 µM for the first, 0.001 to 0.01 µM for the second. The second is the more potent here.

CC[C@H](N)CNc1ccc(C(N)=O)c(Nc2cc(C)ns2)c1 [Example 30, (S)-4-(2-aminobutylamino)-2-(3-methylisothiazol-5-ylamino)benzamide] and COC[C@H](N)CNc1ccc(C(N)=O)c(Nc2cc(C)ns2)c1 [Example 29, (R)-4-(2-amino-3-methoxypropylamino)-2-(3-methylisothiazol-5-ylamino)benzamide] fall in the same range of IC50: 0.1 to 1 µM for the first, 0.1 to 1 µM for the second.

First: CCC[C@@H](Nc1nc(Nc2cnc3ccccc3c2)c(C(N)=O)cc1F)C(N)=O [Example 199, (R)-6-(1-amino-1-oxopentan-2-ylamino)-5-fluoro-2-(quinolin-3-ylamino)nicotinamide]
Second: NC(=O)c1cc(F)c(NC(CC(F)(F)F)C(N)=O)nc1Nc1cnc2ccccc2c1 (centres unmarked) [Example 377, 6-(1-amino-4,4,4-trifluoro-1-oxobutan-2-ylamino)-5-fluoro-2-(quinolin-3-ylamino)nicotinamide]
The IC50 of the first is lower: 0.001 to 0.01 µM for the first, 0.01 to 0.1 µM for the second. The first is the more potent here.

First: NC(=O)c1cc(C(N)=O)c(N[C@@H]2CCCC[C@@H]2N)nc1Nc1cccc(-n2nccn2)c1 [Example 116, 2-(3-(2H-1,2,3-triazol-2-yl)phenylamino)-6-((1R,2S)-2-aminocyclohexylamino)pyridine-3,5-dicarboxamide]
Second: NC(=O)c1cc(F)c(N[C@@H]2CCCC[C@@H]2N)nc1Nc1cccc(N2CCCC2)c1 [Example 47, 6-((1R,2S)-2-aminocyclohexylamino)-5-fluoro-2-(3-(pyrrolidin-1-yl)phenylamino)nicotinamide]
The IC50 of the first is higher: 0.1 to 1 µM for the first, 0.001 to 0.01 µM for the second. The second is the more potent here.

First: CC[C@@H](Nc1nc(Nc2ccnc3ccccc23)c(C(N)=O)cc1F)C(N)=O [Example 242, (R)-6-(1-amino-1-oxobutan-2-ylamino)-5-fluoro-2-(quinolin-4-ylamino)nicotinamide]
Second: NC(=O)c1cc(F)c(N[C@@H]2CCCC[C@@H]2N)nc1Nc1ccnc2ncccc12 [Example 151, 2-(1,8-naphthyridin-4-ylamino)-6-((1R,2S)-2-aminocyclohexylamino)-5-fluoronicotinamide]
The IC50 of the first is higher: 0.01 to 0.1 µM for the first, 0.001 to 0.01 µM for the second. The second is the more potent here.

Cc1cc(Nc2cc(NC[C@H](C)N)ccc2C(N)=O)sn1 [Example 31, (S)-4-(2-aminopropylamino)-2-(3-methylisothiazol-5-ylamino)benzamide] and Cc1cc(Nc2cc(N[C@@H](C(N)=O)C3CCCCC3)ccc2C(N)=O)sn1 [Example 22, (R)-4-(2-amino-1-cyclohexyl-2-oxoethylamino)-2-(3-methylisothiazol-5-ylamino)benzamide] fall in the same range of IC50: 0.01 to 0.1 µM for the first, 0.01 to 0.1 µM for the second.

Compared with NC(=O)c1cc(F)c(N[C@H]2[C@@H](N)CCCC2(F)F)nc1Nc1cccnc1 [Example 347, 6-((1S,6S)-6-amino-2,2-difluorocyclohexylamino)-5-fluoro-2-(pyridin-3-ylamino)nicotinamide], NC(=O)c1cnc(N[C@@H]2CCCC[C@@H]2N)cc1Nc1csc2ncccc12 [Example 422] is higher in IC50: 0.01 to 0.1 µM for the first, > 1 µM for the second.

COC[C@H](N)CNc1ccc(C(N)=O)c(Nc2cccc(C)c2)n1 [Example 103, (R)-2-(m-toluidino)-6-(2-amino-3-methoxypropylamino)nicotinamide] showed an IC50 of 0.1 to 1 µM.
